Legend:
Experiment in all cases: Kinase profiling
Format in all cases: biochemical
CK1delta = target: T1, CK1delta (Homo sapiens, UniProt P48730)
T1 construct: purchased ProQinase (Freiburg, Germany)
Protocol: (§1) The analysis was performed by ProQinase (Freiburg, Germany).

MAPKAPK5 = target: T2, MAPKAPK5 (Homo sapiens, UniProt Q8IW41)
T2 construct: purchased ProQinase (Freiburg, Germany)
T2 sequence (Q8IW41 1-473): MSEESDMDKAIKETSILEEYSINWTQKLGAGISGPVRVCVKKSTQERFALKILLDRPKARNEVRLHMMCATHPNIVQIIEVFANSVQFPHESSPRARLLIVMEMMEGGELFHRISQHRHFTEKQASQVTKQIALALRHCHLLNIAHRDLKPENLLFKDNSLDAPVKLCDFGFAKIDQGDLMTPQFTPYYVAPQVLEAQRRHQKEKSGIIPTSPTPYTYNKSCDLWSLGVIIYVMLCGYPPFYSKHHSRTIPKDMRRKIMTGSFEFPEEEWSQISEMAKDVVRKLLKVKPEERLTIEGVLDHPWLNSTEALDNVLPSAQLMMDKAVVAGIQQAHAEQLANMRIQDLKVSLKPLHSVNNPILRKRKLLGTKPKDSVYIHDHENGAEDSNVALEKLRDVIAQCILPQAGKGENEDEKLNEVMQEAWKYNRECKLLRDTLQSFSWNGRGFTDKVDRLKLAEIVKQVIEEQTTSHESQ
Protocol: as §1

MYLK = target: T3, MYLK (Homo sapiens, UniProt Q15746)
T3 construct: purchased ProQinase (Freiburg, Germany)
Protocol: as §1

EPHA8 = target: T4, EPHA8 (Homo sapiens, UniProt P29322)
T4 construct: purchased ProQinase (Freiburg, Germany)
T4 sequence (P29322 28-1005): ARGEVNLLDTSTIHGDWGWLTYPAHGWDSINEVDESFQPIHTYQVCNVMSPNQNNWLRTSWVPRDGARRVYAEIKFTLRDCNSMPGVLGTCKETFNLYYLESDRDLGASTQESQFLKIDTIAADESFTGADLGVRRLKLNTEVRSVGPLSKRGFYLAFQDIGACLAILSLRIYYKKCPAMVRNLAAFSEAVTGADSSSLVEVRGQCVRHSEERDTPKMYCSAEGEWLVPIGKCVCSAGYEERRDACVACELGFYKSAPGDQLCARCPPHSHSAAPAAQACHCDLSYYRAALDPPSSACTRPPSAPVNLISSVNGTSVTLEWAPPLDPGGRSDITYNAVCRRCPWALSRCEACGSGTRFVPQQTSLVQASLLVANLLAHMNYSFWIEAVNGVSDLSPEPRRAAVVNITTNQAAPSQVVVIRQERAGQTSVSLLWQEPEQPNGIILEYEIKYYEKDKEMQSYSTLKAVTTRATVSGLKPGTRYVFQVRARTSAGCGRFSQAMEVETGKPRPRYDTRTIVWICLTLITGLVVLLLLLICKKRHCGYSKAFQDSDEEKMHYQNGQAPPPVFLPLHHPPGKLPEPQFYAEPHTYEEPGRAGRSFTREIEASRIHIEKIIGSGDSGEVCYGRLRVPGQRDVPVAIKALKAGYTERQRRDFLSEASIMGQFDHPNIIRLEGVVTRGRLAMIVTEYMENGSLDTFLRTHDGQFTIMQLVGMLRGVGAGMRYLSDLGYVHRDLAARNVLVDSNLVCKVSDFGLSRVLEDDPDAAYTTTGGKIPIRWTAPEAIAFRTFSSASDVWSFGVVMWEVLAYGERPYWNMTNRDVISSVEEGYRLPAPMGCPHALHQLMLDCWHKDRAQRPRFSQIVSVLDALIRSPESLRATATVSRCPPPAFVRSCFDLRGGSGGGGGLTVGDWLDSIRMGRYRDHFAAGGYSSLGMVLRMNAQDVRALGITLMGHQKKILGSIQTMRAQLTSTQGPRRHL
Protocol: as §1

SLK = target: T5, SLK (Homo sapiens, UniProt Q9H2G2)
T5 construct: purchased ProQinase (Freiburg, Germany)
Protocol: as §1

PAK6 = target: T6, PAK6 (Homo sapiens, UniProt Q9NQU5)
T6 construct: purchased ProQinase (Freiburg, Germany)
T6 sequence (Q9NQU5 whole entry): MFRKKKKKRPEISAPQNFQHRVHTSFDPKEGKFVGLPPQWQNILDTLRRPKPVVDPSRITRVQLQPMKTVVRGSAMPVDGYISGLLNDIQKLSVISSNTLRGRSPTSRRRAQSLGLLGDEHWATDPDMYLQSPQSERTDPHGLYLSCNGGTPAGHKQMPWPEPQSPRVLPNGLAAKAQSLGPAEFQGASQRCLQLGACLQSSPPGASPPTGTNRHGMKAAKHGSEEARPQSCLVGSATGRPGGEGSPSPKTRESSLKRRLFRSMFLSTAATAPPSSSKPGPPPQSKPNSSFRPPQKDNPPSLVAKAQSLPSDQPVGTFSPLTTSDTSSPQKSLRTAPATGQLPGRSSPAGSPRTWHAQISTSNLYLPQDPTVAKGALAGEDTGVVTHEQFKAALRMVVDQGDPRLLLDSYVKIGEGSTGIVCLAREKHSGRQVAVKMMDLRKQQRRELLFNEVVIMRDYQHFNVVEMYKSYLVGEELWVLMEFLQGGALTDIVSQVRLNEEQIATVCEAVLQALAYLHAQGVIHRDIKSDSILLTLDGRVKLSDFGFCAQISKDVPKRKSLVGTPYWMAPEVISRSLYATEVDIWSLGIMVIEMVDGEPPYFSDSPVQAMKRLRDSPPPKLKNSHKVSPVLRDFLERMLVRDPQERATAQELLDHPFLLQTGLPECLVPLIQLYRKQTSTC
Protocol: as §1

JAK2 = target: T7, JAK2 (Homo sapiens, UniProt O60674)
T7 construct: purchased ProQinase (Freiburg, Germany)
T7 sequence (O60674 whole entry): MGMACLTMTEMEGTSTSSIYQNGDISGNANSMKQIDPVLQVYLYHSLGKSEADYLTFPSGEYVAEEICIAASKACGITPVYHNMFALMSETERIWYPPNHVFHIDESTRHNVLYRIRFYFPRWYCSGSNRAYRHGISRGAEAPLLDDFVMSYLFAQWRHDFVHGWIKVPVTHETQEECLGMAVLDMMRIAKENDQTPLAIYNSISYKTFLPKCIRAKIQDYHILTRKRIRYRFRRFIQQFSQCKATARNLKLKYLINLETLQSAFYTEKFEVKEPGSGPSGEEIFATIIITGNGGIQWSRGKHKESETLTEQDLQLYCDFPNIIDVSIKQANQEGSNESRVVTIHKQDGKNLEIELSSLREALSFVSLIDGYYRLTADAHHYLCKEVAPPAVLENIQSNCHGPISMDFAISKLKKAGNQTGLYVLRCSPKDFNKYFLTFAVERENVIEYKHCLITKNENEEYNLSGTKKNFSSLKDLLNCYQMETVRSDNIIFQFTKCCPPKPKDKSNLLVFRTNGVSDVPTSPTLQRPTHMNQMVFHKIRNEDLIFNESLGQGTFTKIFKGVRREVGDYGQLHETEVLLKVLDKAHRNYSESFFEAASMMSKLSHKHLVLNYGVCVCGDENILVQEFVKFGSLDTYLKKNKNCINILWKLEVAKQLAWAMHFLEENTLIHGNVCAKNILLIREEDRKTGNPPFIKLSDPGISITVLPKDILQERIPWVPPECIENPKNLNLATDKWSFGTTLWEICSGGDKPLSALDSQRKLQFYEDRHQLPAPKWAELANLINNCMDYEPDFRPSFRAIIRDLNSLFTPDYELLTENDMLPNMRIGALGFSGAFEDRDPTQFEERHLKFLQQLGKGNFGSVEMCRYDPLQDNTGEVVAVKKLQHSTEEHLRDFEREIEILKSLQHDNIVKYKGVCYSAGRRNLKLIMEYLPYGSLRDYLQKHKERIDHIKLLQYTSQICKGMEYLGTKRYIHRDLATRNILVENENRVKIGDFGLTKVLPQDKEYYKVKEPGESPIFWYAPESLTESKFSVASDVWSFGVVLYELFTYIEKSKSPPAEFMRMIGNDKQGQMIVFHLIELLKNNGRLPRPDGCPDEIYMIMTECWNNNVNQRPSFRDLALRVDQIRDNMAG
Protocol: as §1

NIK = target: T8, NIK (Homo sapiens, UniProt Q99558)
T8 construct: purchased ProQinase (Freiburg, Germany)
Protocol: as §1

HCK = target: T9, HCK (Homo sapiens, UniProt P08631)
T9 construct: purchased ProQinase (Freiburg, Germany)
T9 sequence (P08631 whole entry): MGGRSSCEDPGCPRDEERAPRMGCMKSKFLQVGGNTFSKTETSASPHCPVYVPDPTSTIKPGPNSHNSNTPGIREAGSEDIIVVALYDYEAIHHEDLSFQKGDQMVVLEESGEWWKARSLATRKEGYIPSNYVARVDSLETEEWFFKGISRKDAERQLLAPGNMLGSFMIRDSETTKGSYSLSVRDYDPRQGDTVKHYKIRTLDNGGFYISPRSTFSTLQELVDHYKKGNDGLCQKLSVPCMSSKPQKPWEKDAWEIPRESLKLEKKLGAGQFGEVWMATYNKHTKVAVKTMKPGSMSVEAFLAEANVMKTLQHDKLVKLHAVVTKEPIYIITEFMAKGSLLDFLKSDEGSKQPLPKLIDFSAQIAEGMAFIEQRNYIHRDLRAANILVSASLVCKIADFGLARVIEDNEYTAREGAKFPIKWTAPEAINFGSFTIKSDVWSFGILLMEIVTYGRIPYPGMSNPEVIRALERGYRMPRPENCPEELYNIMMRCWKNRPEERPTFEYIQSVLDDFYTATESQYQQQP
Protocol: as §1

PAK7 = target: T10, PAK7 (Homo sapiens, UniProt Q9P286)
T10 construct: purchased ProQinase (Freiburg, Germany)
T10 sequence (Q9P286 whole entry): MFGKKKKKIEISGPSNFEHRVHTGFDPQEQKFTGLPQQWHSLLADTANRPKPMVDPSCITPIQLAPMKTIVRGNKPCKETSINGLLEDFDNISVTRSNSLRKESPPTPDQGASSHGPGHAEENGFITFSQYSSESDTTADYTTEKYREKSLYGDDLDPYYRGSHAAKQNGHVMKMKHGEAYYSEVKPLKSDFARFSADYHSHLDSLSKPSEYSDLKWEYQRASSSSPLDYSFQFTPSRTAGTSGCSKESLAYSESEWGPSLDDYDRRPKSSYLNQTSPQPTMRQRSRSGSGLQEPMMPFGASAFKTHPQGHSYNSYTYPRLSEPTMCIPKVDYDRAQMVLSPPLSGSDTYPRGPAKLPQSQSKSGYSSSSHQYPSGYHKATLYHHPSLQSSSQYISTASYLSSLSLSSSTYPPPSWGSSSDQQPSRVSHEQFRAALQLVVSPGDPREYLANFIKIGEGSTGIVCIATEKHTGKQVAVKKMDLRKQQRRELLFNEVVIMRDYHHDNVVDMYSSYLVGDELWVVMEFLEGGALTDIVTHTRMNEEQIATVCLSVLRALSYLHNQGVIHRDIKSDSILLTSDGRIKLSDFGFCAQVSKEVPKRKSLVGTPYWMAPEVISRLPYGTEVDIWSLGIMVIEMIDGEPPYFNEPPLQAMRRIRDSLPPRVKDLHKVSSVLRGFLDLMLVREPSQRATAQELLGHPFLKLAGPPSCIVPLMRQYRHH
Protocol: as §1

NEK3 = target: T11, NEK3 (Homo sapiens, UniProt P51956)
T11 construct: purchased ProQinase (Freiburg, Germany)
T11 sequence (P51956 1-506): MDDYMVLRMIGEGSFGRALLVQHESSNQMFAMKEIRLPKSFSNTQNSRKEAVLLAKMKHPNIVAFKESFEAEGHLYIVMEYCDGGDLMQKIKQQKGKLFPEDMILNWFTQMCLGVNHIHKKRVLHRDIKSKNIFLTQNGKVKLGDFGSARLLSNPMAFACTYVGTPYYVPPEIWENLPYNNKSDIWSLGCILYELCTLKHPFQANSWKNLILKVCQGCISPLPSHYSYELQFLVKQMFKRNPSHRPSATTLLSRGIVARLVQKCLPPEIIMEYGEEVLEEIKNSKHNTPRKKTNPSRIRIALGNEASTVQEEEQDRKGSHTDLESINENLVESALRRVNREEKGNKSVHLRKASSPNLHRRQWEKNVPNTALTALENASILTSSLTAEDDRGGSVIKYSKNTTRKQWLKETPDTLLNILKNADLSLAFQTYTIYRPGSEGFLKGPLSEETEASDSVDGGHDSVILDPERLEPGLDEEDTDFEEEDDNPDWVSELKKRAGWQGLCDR
Protocol: as §1

CAMKK1 = target: T12, CAMKK1 (Homo sapiens, UniProt Q8N5S9)
T12 construct: purchased ProQinase (Freiburg, Germany)
Protocol: as §1

MST3 = target: T13, MST3 (Homo sapiens, UniProt Q9Y6E0)
T13 construct: purchased ProQinase (Freiburg, Germany)
T13 sequence (Q9Y6E0 whole entry): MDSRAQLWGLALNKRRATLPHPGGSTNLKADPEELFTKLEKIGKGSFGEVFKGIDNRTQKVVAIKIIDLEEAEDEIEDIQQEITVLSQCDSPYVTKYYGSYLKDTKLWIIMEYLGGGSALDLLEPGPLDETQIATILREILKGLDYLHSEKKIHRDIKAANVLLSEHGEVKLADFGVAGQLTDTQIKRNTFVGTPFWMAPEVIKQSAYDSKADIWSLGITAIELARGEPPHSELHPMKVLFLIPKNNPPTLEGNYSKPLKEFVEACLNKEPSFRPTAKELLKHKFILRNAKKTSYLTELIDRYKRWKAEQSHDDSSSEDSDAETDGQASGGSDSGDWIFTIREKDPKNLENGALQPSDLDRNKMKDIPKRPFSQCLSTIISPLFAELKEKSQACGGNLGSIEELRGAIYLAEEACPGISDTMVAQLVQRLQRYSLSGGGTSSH
Protocol: as §1

MINK1 = target: T14, MINK1 (Homo sapiens, UniProt Q8N4C8)
T14 construct: purchased ProQinase (Freiburg, Germany)
T14 sequence (Q8N4C8 whole entry): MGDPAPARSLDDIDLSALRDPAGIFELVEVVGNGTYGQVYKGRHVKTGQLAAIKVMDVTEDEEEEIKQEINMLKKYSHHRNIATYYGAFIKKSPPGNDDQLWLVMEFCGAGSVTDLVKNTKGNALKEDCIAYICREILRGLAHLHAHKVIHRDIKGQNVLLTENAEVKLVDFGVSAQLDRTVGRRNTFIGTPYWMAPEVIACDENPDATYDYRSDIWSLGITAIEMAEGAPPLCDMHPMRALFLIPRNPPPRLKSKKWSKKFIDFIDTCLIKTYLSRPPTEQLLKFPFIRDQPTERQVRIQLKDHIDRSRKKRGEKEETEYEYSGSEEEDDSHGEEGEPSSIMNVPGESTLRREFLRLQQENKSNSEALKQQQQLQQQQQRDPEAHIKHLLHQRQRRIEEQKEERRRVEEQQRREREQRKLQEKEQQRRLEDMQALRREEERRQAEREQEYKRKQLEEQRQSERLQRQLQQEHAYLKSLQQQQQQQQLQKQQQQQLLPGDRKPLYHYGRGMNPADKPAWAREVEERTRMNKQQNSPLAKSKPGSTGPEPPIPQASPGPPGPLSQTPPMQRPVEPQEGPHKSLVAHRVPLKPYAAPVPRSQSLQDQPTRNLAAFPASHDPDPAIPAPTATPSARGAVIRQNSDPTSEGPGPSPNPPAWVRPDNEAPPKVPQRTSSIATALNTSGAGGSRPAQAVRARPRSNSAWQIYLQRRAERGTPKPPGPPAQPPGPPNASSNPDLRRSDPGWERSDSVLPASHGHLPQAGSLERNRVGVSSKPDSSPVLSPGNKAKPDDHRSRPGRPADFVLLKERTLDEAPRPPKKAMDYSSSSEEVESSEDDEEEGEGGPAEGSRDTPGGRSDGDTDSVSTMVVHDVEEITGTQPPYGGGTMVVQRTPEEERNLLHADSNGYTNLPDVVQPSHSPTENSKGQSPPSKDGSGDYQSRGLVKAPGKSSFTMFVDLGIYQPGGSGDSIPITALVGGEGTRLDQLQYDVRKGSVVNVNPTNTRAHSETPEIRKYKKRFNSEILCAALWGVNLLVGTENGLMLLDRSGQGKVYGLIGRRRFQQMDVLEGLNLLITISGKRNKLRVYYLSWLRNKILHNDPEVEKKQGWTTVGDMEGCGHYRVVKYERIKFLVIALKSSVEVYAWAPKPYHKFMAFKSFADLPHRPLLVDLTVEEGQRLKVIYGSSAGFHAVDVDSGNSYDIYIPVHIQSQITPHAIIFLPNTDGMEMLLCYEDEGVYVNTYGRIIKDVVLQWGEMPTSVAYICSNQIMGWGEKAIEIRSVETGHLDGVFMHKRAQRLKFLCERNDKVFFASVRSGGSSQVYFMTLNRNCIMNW
Protocol: as §1

Question: How did the Residual activity (CK1delta; 1.0E-05 M) turn out when O=C(Cc1ccccc1)Nc1ccc(F)c(Nc2ccc3c(c2)CCCCC3=O)c1 [Compound 100] was run?
Answer: The Residual activity was 106 % of control.

Question: What about the Residual activity (CK1delta; 1.0E-06 M) of the same compound?
Answer: Its Residual activity is 110 % of control.

Question: What about the Residual activity (MAPKAPK5; 1.0E-05 M) of the same compound?
Answer: Its Residual activity is 89 % of control.

Question: What about the Residual activity (MAPKAPK5; 1.0E-06 M) of the same compound?
Answer: The Residual activity was 127 % of control.

Question: What about the Residual activity (MYLK; 1.0E-05 M) of the same compound?
Answer: The Residual activity was 78 % of control.

Question: And the Residual activity (MYLK; 1.0E-06 M)?
Answer: Its Residual activity is 92 % of control.

Question: And the Residual activity (EPHA8; 1.0E-05 M)?
Answer: Its Residual activity is 91 % of control.

Question: And the Residual activity (EPHA8; 1.0E-06 M)?
Answer: The Residual activity was 98 % of control.

Question: And the Residual activity (SLK; 1.0E-05 M)?
Answer: Its Residual activity is 93 % of control.

Question: What about the Residual activity (SLK; 1.0E-06 M) of the same compound?
Answer: The Residual activity was 98 % of control.

Question: And the Residual activity (PAK6; 1.0E-05 M)?
Answer: Its Residual activity is 98 % of control.

Question: And the Residual activity (PAK6; 1.0E-06 M)?
Answer: The Residual activity was 101 % of control.

Question: And the Residual activity (JAK2; 1.0E-05 M)?
Answer: The Residual activity was 85 % of control.

Question: And the Residual activity (JAK2; 1.0E-06 M)?
Answer: Its Residual activity is 94 % of control.

Question: What about the Residual activity (NIK; 1.0E-05 M) of the same compound?
Answer: The Residual activity was 103 % of control.

Question: What about the Residual activity (NIK; 1.0E-06 M) of the same compound?
Answer: The Residual activity was 93 % of control.

Question: And the Residual activity (HCK; 1.0E-05 M)?
Answer: The Residual activity was 95 % of control.

Question: And the Residual activity (HCK; 1.0E-06 M)?
Answer: The Residual activity was 107 % of control.

Question: What about the Residual activity (PAK7; 1.0E-05 M) of the same compound?
Answer: Its Residual activity is 92 % of control.

Question: What about the Residual activity (PAK7; 1.0E-06 M) of the same compound?
Answer: The Residual activity was 99 % of control.

Question: What about the Residual activity (NEK3; 1.0E-05 M) of the same compound?
Answer: Its Residual activity is 92 % of control.

Question: And the Residual activity (NEK3; 1.0E-06 M)?
Answer: Its Residual activity is 104 % of control.

Question: And the Residual activity (CAMKK1; 1.0E-05 M)?
Answer: Its Residual activity is 80 % of control.

Question: What about the Residual activity (CAMKK1; 1.0E-06 M) of the same compound?
Answer: The Residual activity was 78 % of control.

Question: And the Residual activity (MST3; 1.0E-05 M)?
Answer: The Residual activity was 114 % of control.

Question: What about the Residual activity (MST3; 1.0E-06 M) of the same compound?
Answer: The Residual activity was 122 % of control.

Question: And the Residual activity (MINK1; 1.0E-05 M)?
Answer: Its Residual activity is 73 % of control.

Question: And the Residual activity (MINK1; 1.0E-06 M)?
Answer: The Residual activity was 89 % of control.

Question: For O=C(Nc1ccc(F)c(Nc2ccc3c(c2)CCCCC3=O)c1)c1cccc(F)c1 [Compound 109], which inhibition at 1 µM (CK1delta; 1 µM, read-out: inhibition of CK1-δ) is on record?
Answer: The inhibition at 1 µM was ≥ 50%.

Question: And the inhibition at 10 µM (CK1delta; 10 µM, read-out: inhibition of CK1-δ)?
Answer: Its inhibition at 10 µM is ≥ 50%.

Question: What about the Residual activity (CK1delta; 1.0E-05 M) of the same compound?
Answer: Its Residual activity is 15 % of control.

Question: What about the Residual activity (CK1delta; 1.0E-06 M) of the same compound?
Answer: The Residual activity was 23 % of control.

Question: And the Residual activity (MAPKAPK5; 1.0E-05 M)?
Answer: Its Residual activity is 97 % of control.

Question: And the Residual activity (MAPKAPK5; 1.0E-06 M)?
Answer: Its Residual activity is 101 % of control.

Question: And the Residual activity (MYLK; 1.0E-05 M)?
Answer: The Residual activity was 64 % of control.

Question: And the Residual activity (MYLK; 1.0E-06 M)?
Answer: The Residual activity was 81 % of control.

Question: What about the Residual activity (EPHA8; 1.0E-05 M) of the same compound?
Answer: Its Residual activity is 91 % of control.

Question: And the Residual activity (EPHA8; 1.0E-06 M)?
Answer: The Residual activity was 110 % of control.

Question: And the Residual activity (SLK; 1.0E-05 M)?
Answer: Its Residual activity is 91 % of control.

Question: And the Residual activity (SLK; 1.0E-06 M)?
Answer: The Residual activity was 94 % of control.

Question: And the Residual activity (PAK6; 1.0E-05 M)?
Answer: The Residual activity was 90 % of control.

Question: And the Residual activity (PAK6; 1.0E-06 M)?
Answer: Its Residual activity is 99 % of control.

Question: What about the Residual activity (JAK2; 1.0E-05 M) of the same compound?
Answer: Its Residual activity is 89 % of control.

Question: What about the Residual activity (JAK2; 1.0E-06 M) of the same compound?
Answer: The Residual activity was 90 % of control.

Question: What about the Residual activity (NIK; 1.0E-05 M) of the same compound?
Answer: Its Residual activity is 103 % of control.

Question: What about the Residual activity (NIK; 1.0E-06 M) of the same compound?
Answer: The Residual activity was 103 % of control.

Question: And the Residual activity (HCK; 1.0E-05 M)?
Answer: Its Residual activity is 76 % of control.

Question: And the Residual activity (HCK; 1.0E-06 M)?
Answer: Its Residual activity is 99 % of control.

Question: And the Residual activity (PAK7; 1.0E-05 M)?
Answer: The Residual activity was 93 % of control.

Question: What about the Residual activity (PAK7; 1.0E-06 M) of the same compound?
Answer: The Residual activity was 101 % of control.

Question: And the Residual activity (NEK3; 1.0E-05 M)?
Answer: Its Residual activity is 97 % of control.

Question: And the Residual activity (NEK3; 1.0E-06 M)?
Answer: Its Residual activity is 96 % of control.

Question: What about the Residual activity (CAMKK1; 1.0E-05 M) of the same compound?
Answer: Its Residual activity is 75 % of control.

Question: What about the Residual activity (CAMKK1; 1.0E-06 M) of the same compound?
Answer: The Residual activity was 77 % of control.

Question: And the Residual activity (MST3; 1.0E-05 M)?
Answer: Its Residual activity is 103 % of control.

Question: What about the Residual activity (MST3; 1.0E-06 M) of the same compound?
Answer: The Residual activity was 106 % of control.

Question: And the Residual activity (MINK1; 1.0E-05 M)?
Answer: Its Residual activity is 57 % of control.

Question: What about the Residual activity (MINK1; 1.0E-06 M) of the same compound?
Answer: The Residual activity was 86 % of control.

From paper PMC9030254, “Target Hopping from Protein Kinases to PXR: Identification of Small-Molecule Protein Kinase Inhibitors as Selective Modulators of Pregnane X Receptor from TüKIC Library” (Cells, 2022)
